Test results published in patent publication US4443475A, “Amides of acyl-carnitines, process for preparing same and pharmaceutical compositions containing such amides” (priority 1979, dated 1984).
Like-named read-outs stand apart in the source and are kept apart here.

How the values were obtained:
[1] = Effect on spontaneous motility (ANIMEX); assay type: in vivo; details: Mus musculus, ip, 0.5 h, mice, control 850 ± 65 in 30 min, read-out: Spontaneous motility, % increase versus controls; for change in vivo at 50 mg/kg: 50 mg/kg i.p.; for change in vivo at 25 mg/kg: 25 mg/kg i.p.
Experimental: (g) Effect on spontaneous motility
Male Albino Swiss mice weighing 18-22 g, were divided into two groups of 5 and caged for at least 1 week. One group received the compounds under investigation and the other group (control group) was given the vehicle. The animals remained in their cages and were placed on the ANIMEX (Farad-Sweden) apparatus which recorded the movements for two 30-minute intervals beginning from 5 minutes after administration of the compounds.
Table II gives the results expressed as percentage variation in the number of spontaneous movements of the treated animals versus those of the control animals.

[2] = system: isolated rabbit heart; test: Inotropic effect on isolated rabbit heart (Langendorff) after anoxia; details: Oryctolagus cuniculus, 10 min; 10^-5 gl^-1, isolated rabbit heart, 10 minutes after end of anoxia; read-out: Inotropic Effect, % of controls (increased percentage versus controls)
Experimental: Rabbit hearts isolated by Langendorff's method were perfused in a Ringer solution oxygenated at 38.2° C. The isometric […], ECG and coronary flow were recorded using a "Battaglia-Rangoni" polygraph.
Metabolic damage in the heart muscle was induced by removing the oxygen from the perfusion liquid until contractile force was reduced by 80%.
In these conditions of prolonged anoxia myocardial […] glycolysis was slowed down, accompanied by accumulation of catabolic acids due to storage of pyruvic acid and its conversion to lactic acid which cannot be utilized owing to the depression of the pyridinic enzymes, such as lacticodehydrogenase. This affects anaerobic glycolysis involving an ever increasing number of enzymes, with a progressive and increasingly more critical exhaustion of the myocardium.
Thus there is a whole series of cardiac muscle fatigue levels recorded by the pattern of the parameters taken into account i.e. contractile force, coronary output, heart rate and cardiac rhythm. As soon as the contractile force was reduced by 80%, the perfusion liquid was once again oxygenated without adding other compounds (controls) or with the addition of the compounds under investigation at various concentrations.

[3] = Effect antagonizing adrenaline (mortality); assay type: in vivo; details: Mus musculus, ip, mice, 36 hours, read-out: Antiadrenaline Effects, % mortality reduction; for responders at 100 mg/kg: 100 mg/kg i.p.; for responders at 300 mg/kg: 300 mg/kg i.p.; for responders at 70 mg/kg: 70 mg/kg i.p.; for responders at 50 mg/kg: 50 mg/kg i.p.
Experimental: (d) Effect antagonizing adrenaline
Male Albino Swiss mice weighing 12-22 g, divided into groups of 10, were treated with the compounds under investigation or with saline (controls) i.p. and then 30 minutes later with adrenaline (treated) at a dose capable of causing death in 100% of the control animals due to ventricular fibrillation and cardiac lesions ensuing from increased heart rate, pressure and oxygen consumption by the myocardium.
Mortality was monitored for 36 hours and the effect of the compounds was expressed in % of survivals versus treated animals.

[4] = Interaction with barbiturates (EVIPAN, loss of righting reflex); assay type: in vivo; details: Mus musculus, ip, mice, EVIPAN 75 mg/kg, read-out: Barbituric interaction, % reduction of RR (righting reflex) loss; for inhibition in vivo at 100 mg/kg: 100 mg/kg i.p. (head); for inhibition in vivo at 50 mg/kg: 50 mg/kg i.p. (head)
[5] = Anti-arrhythmic (antifibrillation) effect, aconitine-induced arrhythmia; assay type: in vivo, mice; details: Mus musculus, ip, read-out: Antifibrillation Effects, % reduction
Experimental: (c) Anti-arrhythmic effect
In order to evaluate by means of in vivo test the anti-arrhythmic effect exerted by the various carnitine derivatives in addition to and versus the usual in vitro tests, the method described by Nwangwu et al. (Arch. Int. Pharmacodyn., 1977, v. 229, 219) was employed.
This method is carried out by injecting a solution of aconitine into the caudal […] and recording the time of the appearance of arrhythmia and tachycardia from 2 to 60 minutes following the administration of the compounds under investigation.

[6] = Acute toxicity (LD50), Weil method; details: mouse, in vivo, mice (Table I title)
[7] = Antagonism to cardiazol (protection from death by convulsions); assay type: in vivo; details: ip, rat, 5 hours; for responders at 50 mg/kg: 50 mg/kg i.p. (head); for responders at 150 mg/kg: 150 mg/kg i.p. (head); for responders at 100 mg/kg: 100 mg/kg i.p. (head)

SMILES | activation at 0.01 µg/mL [2] [%] | inhibition in vivo at 100 mg/kg [4] [%] | inhibition in vivo at 50 mg/kg [5] [%] | LD50 ([6]; ip, read-out: LD50 i.p.) [mg/kg] | LD50 ([6]; oral, read-out: LD50 oral) [mg/kg] | responders at 50 mg/kg [7] [%] | change in vivo at 50 mg/kg [1] [%] | change in vivo at 25 mg/kg [1] [%] | inhibition in vivo at 50 mg/kg [4] [%] | also measured
CCC(=O)OC(CC(=O)NC(C(=O)OC)C(C)CC)C[N+](C)(C)C (stereo not drawn) | 65 | 27 | 65 | 750 | 2500 | 39 | – | – | – | change in vivo at 100 mg/kg ([1]; 100 mg/kg i.p.): 35%; responders at 100 mg/kg [3]: 50%
CCC(=O)OC(CC(=O)NC(CC(C)C)C(=O)OC)C[N+](C)(C)C (stereo not drawn) [propionyl carnitine amide of leucine methyl ester] | 45 | 31 | 75 | 600 | 2350 | 32 | 62 | – | – | responders at 100 mg/kg [3]: 70%
COC(=O)CC(NC(=O)CC(C[N+](C)(C)C)OC(C)=O)C(=O)OC (stereo not drawn) [COCH3; (1,2-dicarbomethoxy ethyl) amino] | 48 | – | – | 1500 | 4200 | 75 | 60 | – | – | responders at 300 mg/kg [3]: 55%; inhibition in vivo at 75 mg/kg [5]: 80%
COC(=O)CCC(NC(=O)CC(C[N+](C)(C)C)OC(C)=O)C(=O)OC (stereo not drawn) [COCH3; (1,3-dicarbomethoxy propyl) amino] | 40 | – | – | 1000 | 3600 | 70 | – | 19 | – | responders at 150 mg/kg ([3]; 150 mg/kg i.p.): 40%; inhibition in vivo at 20 mg/kg ([4]; 20 mg/kg i.p. (head)): 40%; inhibition in vivo at 20 mg/kg [5]: 65%
CCC(=O)OC(CC(=O)NC(CC(=O)OC)C(=O)OC)C[N+](C)(C)C (stereo not drawn) | 50 | 25 | – | 590 | 1800 | – | – | 59 | – | responders at 100 mg/kg [3]: 70%; inhibition in vivo at 40 mg/kg [5]: 70%; responders at 40 mg/kg ([7]; 40 mg/kg i.p. (head)): 51%
CCCC(=O)OC(CC(=O)NCCS(=O)(=O)[O-])C[N+](C)(C)C (stereo not drawn) [OCOCH2CH2CH3; 2-sulfonyl ethyl amino] | 40 | – | 60 | 1500 | 4000 | 58 | 43 | – | 70 | responders at 300 mg/kg [3]: 50%
CCC(=O)OC(CC(=O)NC(CCC(=O)OC)C(=O)OC)C[N+](C)(C)C (stereo not drawn) | 45 | – | – | 400 | 1200 | 47 | 25 | – | 50 | responders at 70 mg/kg [3]: 40%; inhibition in vivo at 10 mg/kg [5]: 60%
CCC(=O)OC(CC(=O)NC(C(=O)OC)C(C)C)C[N+](C)(C)C (stereo not drawn) | 65 | – | – | 500 | 1350 | – | – | 75 | 58 | responders at 50 mg/kg [3]: 40%; inhibition in vivo at 35 mg/kg [5]: 60%; responders at 35 mg/kg ([7]; 35 mg/kg i.p. (head)): 38%
COC(=O)C(CC(C)C)NC(=O)CC(C[N+](C)(C)C)OC(C)=O (stereo not drawn) | 45 | – | 70 | 1000 | 3500 | – | – | 28 | 35 | responders at 50 mg/kg [3]: 75%; responders at 150 mg/kg [7]: 60%
CCC(C)C(NC(=O)CC(C[N+](C)(C)C)OC(C)=O)C(=O)OC (stereo not drawn) | 45 | – | – | 500 | 1200 | – | – | 34 | – | responders at 100 mg/kg [3]: 50%; inhibition in vivo at 40 mg/kg ([4]; 40 mg/kg i.p. (head)): 35%; inhibition in vivo at 40 mg/kg [5]: 65%; responders at 100 mg/kg [7]: 53%
COC(=O)C(NC(=O)CC(C[N+](C)(C)C)OC(C)=O)C(C)C (stereo not drawn) | 70 | – | 100 | 600 | 2400 | – | – | – | 40 | change in vivo at 35 mg/kg ([1]; 35 mg/kg i.p.): 50%; responders at 50 mg/kg [3]: 80%; responders at 100 mg/kg [7]: 84%
CC(=O)OC(CC(=O)NCCS(=O)(=O)[O-])C[N+](C)(C)C (stereo not drawn) [COCH3; 2-sulfonyl ethyl amino, acetyl carnitine amide with taurine] | 62 | 30 | – | 1500 | 4000 | – | 25 | – | – | responders at 450 mg/kg ([3]; 450 mg/kg i.p.): 65%; inhibition in vivo at 300 mg/kg [5]: 70%; responders at 150 mg/kg [7]: 65%
CCC(=O)OC(CC(=O)NCCS(=O)(=O)[O-])C[N+](C)(C)C (stereo not drawn) [OCOCH2 CH3; 2-sulfonyl ethyl amino] | 50 | 60 | – | 1500 | 4000 | – | 40 | – | – | responders at 300 mg/kg [3]: 70%; inhibition in vivo at 150 mg/kg [5]: 95%; responders at 150 mg/kg [7]: 40%
CCOC(=O)CC(O)CNC(=O)CC(C[N+](C)(C)C)OC(C)=O (stereo not drawn) | 53 | – | 65 | 450 | 1300 | – | 30 | – | 25 | responders at 70 mg/kg [3]: 60%; responders at 150 mg/kg [7]: 70%
